Assays:
[1] = biological target: Tyrosine-protein phosphatase non-receptor type 6 (Homo sapiens, UniProt P29350); experiment: Inhibition of SHP1 (unknown origin) expressed in Escherichia coli BL21(DE3) using pNPP as substrate preincubated for 15 mins followed by substrate addition measured after 10 mins
[2] = biological target: T1, Tyrosine-protein phosphatase non-receptor type 1 (Homo sapiens, UniProt P18031); experiment: Inhibition of PTP1B (unknown origin) expressed in Escherichia coli BL21(DE3) using pNPP as substrate preincubated for 15 mins followed by substrate addition measured after 10 mins
T1 sequence (P18031 whole entry): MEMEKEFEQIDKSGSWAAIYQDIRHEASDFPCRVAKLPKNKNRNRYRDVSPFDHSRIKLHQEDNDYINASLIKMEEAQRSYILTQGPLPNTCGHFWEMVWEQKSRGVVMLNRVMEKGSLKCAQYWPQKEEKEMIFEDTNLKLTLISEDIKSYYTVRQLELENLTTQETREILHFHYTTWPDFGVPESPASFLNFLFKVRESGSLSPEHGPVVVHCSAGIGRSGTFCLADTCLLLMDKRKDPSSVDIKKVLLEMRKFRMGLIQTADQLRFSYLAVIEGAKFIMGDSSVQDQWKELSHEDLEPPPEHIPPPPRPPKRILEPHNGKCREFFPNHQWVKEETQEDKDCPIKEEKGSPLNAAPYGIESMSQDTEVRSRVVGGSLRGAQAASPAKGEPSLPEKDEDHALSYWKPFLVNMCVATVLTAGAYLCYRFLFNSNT

[3] = biological target: T2, Tyrosine-protein phosphatase non-receptor type 2 (Homo sapiens, UniProt P17706); experiment: Inhibition of TCPTP (unknown origin) expressed in Escherichia coli BL21(DE3) using pNPP as substrate preincubated for 15 mins followed by substrate addition measured after 10 mins
T2 sequence (P17706 whole entry): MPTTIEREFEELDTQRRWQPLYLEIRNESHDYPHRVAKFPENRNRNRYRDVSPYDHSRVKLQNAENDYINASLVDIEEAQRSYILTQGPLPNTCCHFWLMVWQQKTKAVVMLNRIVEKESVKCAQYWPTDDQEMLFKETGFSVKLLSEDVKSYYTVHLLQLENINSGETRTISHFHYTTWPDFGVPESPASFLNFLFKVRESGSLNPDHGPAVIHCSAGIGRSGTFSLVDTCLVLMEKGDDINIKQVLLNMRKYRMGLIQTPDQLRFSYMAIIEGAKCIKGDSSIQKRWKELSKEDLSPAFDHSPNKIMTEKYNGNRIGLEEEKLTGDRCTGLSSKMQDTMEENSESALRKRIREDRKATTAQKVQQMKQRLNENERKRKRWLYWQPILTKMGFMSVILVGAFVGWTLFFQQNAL

Chain of Tyrosine-protein phosphatase non-receptor type 6 (P29350 whole entry): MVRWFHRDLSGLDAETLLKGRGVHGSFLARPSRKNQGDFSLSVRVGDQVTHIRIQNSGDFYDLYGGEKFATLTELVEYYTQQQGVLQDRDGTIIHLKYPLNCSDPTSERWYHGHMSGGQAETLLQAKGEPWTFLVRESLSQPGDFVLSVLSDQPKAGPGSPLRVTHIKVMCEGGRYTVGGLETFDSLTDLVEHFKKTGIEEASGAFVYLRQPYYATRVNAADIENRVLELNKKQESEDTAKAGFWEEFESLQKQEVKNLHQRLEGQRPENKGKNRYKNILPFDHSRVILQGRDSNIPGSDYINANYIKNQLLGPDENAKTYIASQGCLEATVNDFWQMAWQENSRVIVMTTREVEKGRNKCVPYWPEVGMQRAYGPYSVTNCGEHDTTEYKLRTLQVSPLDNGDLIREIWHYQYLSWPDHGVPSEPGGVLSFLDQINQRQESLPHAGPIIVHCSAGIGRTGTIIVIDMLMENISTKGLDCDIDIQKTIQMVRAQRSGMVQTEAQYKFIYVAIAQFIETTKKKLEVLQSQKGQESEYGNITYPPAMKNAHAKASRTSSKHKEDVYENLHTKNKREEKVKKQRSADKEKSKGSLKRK

`C/C(=C\Cc1c(O)cc(O)c2c1C[C@@H](C)OC2=O)CC/C=C(\C)CC[C@H](O)C(C)(C)O` gave an IC50 [1] of 8.8 µM, an IC50 [2] of 13.7 µM and an IC50 [3] of 16.6 µM.

— ChEMBL document CHEMBL3992550, “An epigenetic modifier induces production of (10'S)-verruculide B, an inhibitor of protein tyrosine phosphatases by Phoma sp. nov. LG0217, a fungal endophyte of Parkinsonia microphylla” (Bioorg Med Chem, 2017)
